Reference: patent publication US20250296938A1, “Compounds that Interact with the Ras Superfamily for the Treatment of Cancers, Inflammatory Diseases, Rasopathies, and Fibrotic Disease” (SHY Therapeutics, LLC, priority 2018, published 2025)

molecular target: T1, KRas G12D mutant (Homo sapiens, UniProt P01116, G12D); assay: Ras GTP binding domain inhibition assay (Cy3-GTP/Cy5-GTP competition); conditions: 20 μM; with SOS; read-out: KRas G-12D mutant + SOS: % inh.
T1 construct: fused on or other part: His tag, used for capture on nickel-coated plates
How it was run: (§1)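 His-tagged Ras proteins were captured on nickel-coated wells in Buffer-I (25 mM Tris-HCl pH 7.4, 27 mM KCl, 137 mM NaCl, 1 mM MgCl2, 1 mM DTT) or Buffer-II (50 mM Tris-HCl pH 7.0). Compounds (20 μM or serial dilution, 1% DMSO) were incubated 3 h at RT, ±Sos(556-1049) in the final hour. Bound Cy3-/Cy5-GTP (100 nM, 45 min) was read after washing.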

Compound | inhibition at 20 µM
COc1ccc(Oc2nc(-c3ccccn3)nc(O)c2OC)cc1 [drawing 815] | 26 to 50%
Oc1nc(-c2cn3ccccc3n2)nc2c(-c3ccccn3)csc12 [drawing 816] | 1 to 25%
O=C(NCc1ccccc1)c1nc(-c2ccccn2)nc(O)c1O [drawing 821] | 51 to 75%
COC1CCN(c2nc(-c3nccn3C)nc3sc(Br)c(-c4ccccc4)c23)C1 (stereo not drawn) [drawing 822] | 51 to 75%
Cn1ccnc1-c1nc(O)c(O)c(C(=O)NC2CCC2)n1 [drawing 825] | 26 to 50%
Cn1ccnc1-c1nc(O)c(O)c(C(=O)N2CCCCC2)n1 [drawing 826] | 1 to 25%
Cn1ccnc1-c1nc(O)c(O)c(C(=O)NC2CCCC2)n1 [drawing 827] | 26 to 50%
Cn1ccnc1-c1nc(O)c(O)c(C(=O)N2CCCC2)n1 [drawing 828] | 1 to 25%
CCN(CC)C(=O)c1nc(-c2nccn2C)nc(O)c1O [drawing 829] | 1 to 25%

same assay, conditions: 20 μM; without SOS; read-out: KRas G12D mutant: % inh.

Compound | inhibition at 20 µM
COc1ccc(Oc2nc(-c3ccccn3)nc(O)c2OC)cc1 [drawing 815] | 76 to 100%
Oc1nc(-c2cn3ccccc3n2)nc2c(-c3ccccn3)csc12 [drawing 816] | 26 to 50%
O=C(NCc1ccccc1)c1nc(-c2ccccn2)nc(O)c1O [drawing 821] | 51 to 75%
COC1CCN(c2nc(-c3nccn3C)nc3sc(Br)c(-c4ccccc4)c23)C1 (stereo not drawn) [drawing 822] | 26 to 50%
Cn1ccnc1-c1nc(O)c(O)c(C(=O)NC2CCC2)n1 [drawing 825] | 51 to 75%
Cn1ccnc1-c1nc(O)c(O)c(C(=O)N2CCCCC2)n1 [drawing 826] | 26 to 50%
Cn1ccnc1-c1nc(O)c(O)c(C(=O)NC2CCCC2)n1 [drawing 827] | 51 to 75%
Cn1ccnc1-c1nc(O)c(O)c(C(=O)N2CCCC2)n1 [drawing 828] | 26 to 50%
CCN(CC)C(=O)c1nc(-c2nccn2C)nc(O)c1O [drawing 829] | 51 to 75%

tested on: KRas G12C mutant; assay: as above; set-up: species or system human; conditions: 20 μM; with SOS
How it was run: as §1

Compound | KRas G12C mutant + SOS: % inh.
COc1ccc(Oc2nc(-c3ccccn3)nc(O)c2OC)cc1 [drawing 815] | C (51-75% inhibition)
Oc1nc(-c2cn3ccccc3n2)nc2c(-c3ccccn3)csc12 [drawing 816] | B (26-50% inhibition)
O=C(NCc1ccccc1)c1nc(-c2ccccn2)nc(O)c1O [drawing 821] | C (51-75% inhibition)
COC1CCN(c2nc(-c3nccn3C)nc3sc(Br)c(-c4ccccc4)c23)C1 (stereo not drawn) [drawing 822] | D (76-100% inhibition)
Cn1ccnc1-c1nc(O)c(O)c(C(=O)NC2CCC2)n1 [drawing 825] | B (26-50% inhibition)
Cn1ccnc1-c1nc(O)c(O)c(C(=O)N2CCCCC2)n1 [drawing 826] | A (1-25% inhibition)
Cn1ccnc1-c1nc(O)c(O)c(C(=O)NC2CCCC2)n1 [drawing 827] | B (26-50% inhibition)
Cn1ccnc1-c1nc(O)c(O)c(C(=O)N2CCCC2)n1 [drawing 828] | A (1-25% inhibition)
CCN(CC)C(=O)c1nc(-c2nccn2C)nc(O)c1O [drawing 829] | A (1-25% inhibition)

same assay, conditions: 20 μM; without SOS

Compound | KRas G12C mutant: % inh.
COc1ccc(Oc2nc(-c3ccccn3)nc(O)c2OC)cc1 [drawing 815] | D (76-100% inhibition)
Oc1nc(-c2cn3ccccc3n2)nc2c(-c3ccccn3)csc12 [drawing 816] | B (26-50% inhibition)
O=C(NCc1ccccc1)c1nc(-c2ccccn2)nc(O)c1O [drawing 821] | B (26-50% inhibition)
COC1CCN(c2nc(-c3nccn3C)nc3sc(Br)c(-c4ccccc4)c23)C1 (stereo not drawn) [drawing 822] | B (26-50% inhibition)
Cn1ccnc1-c1nc(O)c(O)c(C(=O)NC2CCC2)n1 [drawing 825] | C (51-75% inhibition)
Cn1ccnc1-c1nc(O)c(O)c(C(=O)N2CCCCC2)n1 [drawing 826] | B (26-50% inhibition)
Cn1ccnc1-c1nc(O)c(O)c(C(=O)NC2CCCC2)n1 [drawing 827] | C (51-75% inhibition)
Cn1ccnc1-c1nc(O)c(O)c(C(=O)N2CCCC2)n1 [drawing 828] | B (26-50% inhibition)
CCN(CC)C(=O)c1nc(-c2nccn2C)nc(O)c1O [drawing 829] | A (1-25% inhibition)

tested on: KRas Q61H mutant; assay: as above; set-up: species or system human; conditions: 20 μM; with SOS
How it was run: as §1

Compound | KRas Q61H mutant + SOS: % inh.
COc1ccc(Oc2nc(-c3ccccn3)nc(O)c2OC)cc1 [drawing 815] | C (51-75% inhibition)
Oc1nc(-c2cn3ccccc3n2)nc2c(-c3ccccn3)csc12 [drawing 816] | B (26-50% inhibition)
O=C(NCc1ccccc1)c1nc(-c2ccccn2)nc(O)c1O [drawing 821] | C (51-75% inhibition)
COC1CCN(c2nc(-c3nccn3C)nc3sc(Br)c(-c4ccccc4)c23)C1 (stereo not drawn) [drawing 822] | C (51-75% inhibition)
Cn1ccnc1-c1nc(O)c(O)c(C(=O)NC2CCC2)n1 [drawing 825] | C (51-75% inhibition)
Cn1ccnc1-c1nc(O)c(O)c(C(=O)N2CCCCC2)n1 [drawing 826] | B (26-50% inhibition)
Cn1ccnc1-c1nc(O)c(O)c(C(=O)NC2CCCC2)n1 [drawing 827] | C (51-75% inhibition)
Cn1ccnc1-c1nc(O)c(O)c(C(=O)N2CCCC2)n1 [drawing 828] | B (26-50% inhibition)
CCN(CC)C(=O)c1nc(-c2nccn2C)nc(O)c1O [drawing 829] | B (26-50% inhibition)

same assay, conditions: 20 μM; without SOS

Compound | KRas Q61H mutant: % inh.
COc1ccc(Oc2nc(-c3ccccn3)nc(O)c2OC)cc1 [drawing 815] | D (76-100% inhibition)
Oc1nc(-c2cn3ccccc3n2)nc2c(-c3ccccn3)csc12 [drawing 816] | B (26-50% inhibition)
O=C(NCc1ccccc1)c1nc(-c2ccccn2)nc(O)c1O [drawing 821] | D (76-100% inhibition)
COC1CCN(c2nc(-c3nccn3C)nc3sc(Br)c(-c4ccccc4)c23)C1 (stereo not drawn) [drawing 822] | B (26-50% inhibition)
Cn1ccnc1-c1nc(O)c(O)c(C(=O)NC2CCC2)n1 [drawing 825] | C (51-75% inhibition)
Cn1ccnc1-c1nc(O)c(O)c(C(=O)N2CCCCC2)n1 [drawing 826] | B (26-50% inhibition)
Cn1ccnc1-c1nc(O)c(O)c(C(=O)NC2CCCC2)n1 [drawing 827] | C (51-75% inhibition)
Cn1ccnc1-c1nc(O)c(O)c(C(=O)N2CCCC2)n1 [drawing 828] | C (51-75% inhibition)
CCN(CC)C(=O)c1nc(-c2nccn2C)nc(O)c1O [drawing 829] | B (26-50% inhibition)

tested on: KRas wild type; assay: as above; set-up: species or system human; conditions: 20 μM; with SOS
How it was run: as §1

Compound | KRas wild type + SOS: % inh.
COc1ccc(Oc2nc(-c3ccccn3)nc(O)c2OC)cc1 [drawing 815] | B (26-50% inhibition)
Oc1nc(-c2cn3ccccc3n2)nc2c(-c3ccccn3)csc12 [drawing 816] | A (1-25% inhibition)
O=C(NCc1ccccc1)c1nc(-c2ccccn2)nc(O)c1O [drawing 821] | B (26-50% inhibition)
COC1CCN(c2nc(-c3nccn3C)nc3sc(Br)c(-c4ccccc4)c23)C1 (stereo not drawn) [drawing 822] | D (76-100% inhibition)
Cn1ccnc1-c1nc(O)c(O)c(C(=O)NC2CCC2)n1 [drawing 825] | B (26-50% inhibition)
Cn1ccnc1-c1nc(O)c(O)c(C(=O)N2CCCCC2)n1 [drawing 826] | A (1-25% inhibition)
Cn1ccnc1-c1nc(O)c(O)c(C(=O)NC2CCCC2)n1 [drawing 827] | B (26-50% inhibition)
Cn1ccnc1-c1nc(O)c(O)c(C(=O)N2CCCC2)n1 [drawing 828] | A (1-25% inhibition)
CCN(CC)C(=O)c1nc(-c2nccn2C)nc(O)c1O [drawing 829] | A (1-25% inhibition)

same assay, conditions: 20 μM; without SOS

Compound | KRas wild type: % inh.
COc1ccc(Oc2nc(-c3ccccn3)nc(O)c2OC)cc1 [drawing 815] | D (76-100% inhibition)
Oc1nc(-c2cn3ccccc3n2)nc2c(-c3ccccn3)csc12 [drawing 816] | C (51-75% inhibition)
O=C(NCc1ccccc1)c1nc(-c2ccccn2)nc(O)c1O [drawing 821] | D (76-100% inhibition)
COC1CCN(c2nc(-c3nccn3C)nc3sc(Br)c(-c4ccccc4)c23)C1 (stereo not drawn) [drawing 822] | C (51-75% inhibition)
Cn1ccnc1-c1nc(O)c(O)c(C(=O)NC2CCC2)n1 [drawing 825] | C (51-75% inhibition)
Cn1ccnc1-c1nc(O)c(O)c(C(=O)N2CCCCC2)n1 [drawing 826] | C (51-75% inhibition)
Cn1ccnc1-c1nc(O)c(O)c(C(=O)NC2CCCC2)n1 [drawing 827] | C (51-75% inhibition)
Cn1ccnc1-c1nc(O)c(O)c(C(=O)N2CCCC2)n1 [drawing 828] | B (26-50% inhibition)
CCN(CC)C(=O)c1nc(-c2nccn2C)nc(O)c1O [drawing 829] | B (26-50% inhibition)
